≈ marks a conversion by molar mass, not a printed value.
Assays:
PC-3 = assay: Cytotoxicity against human PC-3 cells; format: functional; conditions: Homo sapiens, PC-3; read-out: ED50 (the source's name)
MIA PaCa-2 = assay: Cytotoxicity against human MIA PaCa2 cells; format: functional; conditions: for EC50: Homo sapiens, MIA PaCa-2, read-out: ED50 (the source's name)
[1] = Toxicity in brine shrimp; format: organism-based; conditions: artemia, in vivo
A549 = assay: Cytotoxicity against human A549 cells; format: functional; conditions: for EC50: Homo sapiens, A549, read-out: ED50 (the source's name)
MCF7 = assay: Cytotoxicity against human MCF7 cells; format: functional; conditions: for EC50: Homo sapiens, MCF7, read-out: ED50 (the source's name)
HT-29 = assay: Cytotoxicity against human HT-29 cells; format: functional; conditions: for EC50: Homo sapiens, HT-29, read-out: ED50 (the source's name)
A498 = assay: Cytotoxicity against human A-498 cells; format: functional; conditions: Homo sapiens, A498; read-out: ED50 (the source's name)

Row | SMILES | EC50 (PC-3) | EC50 (MIA PaCa-2) | LC50 [1] | EC50 (A549) | EC50 (MCF7) | EC50 (HT-29) | EC50 (A498) | ED50 (MIA PaCa-2) | ED50 (A549) | ED50 (MCF7) | ED50 (HT-29)
1 | CCCCCCCCCC[C@@H](O)[C@H]1CC[C@H]([C@H]2CC[C@H]([C@H](O)CCCC[C@H](O)CCCCC[C@@H](O)CC3=C[C@H](C)OC3=O)O2)O1 | 0.53 µg/mL (≈ 0.83 µM) | > 1 µg/mL | 0.43 µg/mL (≈ 0.673 µM) | 0.67 µg/mL (≈ 1.05 µM) | 0.33 µg/mL (≈ 0.516 µM) | 0.76 µg/mL (≈ 1.19 µM) | > 1 µg/mL |  |  |  | 
2 | CCCCCCCCCC[C@@H](O)[C@H]1CC[C@H]([C@H]2CC[C@H]([C@H](O)CCCCC[C@@H](O)CCCCC3CC(CC(C)=O)C(=O)O3)O2)O1 (some centres not stated) | 0.16 µg/mL (≈ 0.25 µM) |  | 0.35 µg/mL (≈ 0.548 µM) | 0.077 µg/mL (≈ 0.121 µM) | 0.0012 µg/mL (≈ 0.00188 µM) | 1.4 µg/mL (≈ 2.19 µM) | 0.036 µg/mL (≈ 0.0563 µM) | 1.7 ×10⁻⁴ ug/ml |  |  | 
3 | CCCCCCCCCCCC[C@@H](O)[C@H]1CC[C@H]([C@H](O)CCCC(O)C(O)CCCCC[C@@H]2CC(CC(C)=O)C(=O)O2)O1 (some centres not stated) | 1.3 µg/mL (≈ 2.12 µM) | < 0.01 µg/mL | 4.8 µg/mL (≈ 7.83 µM) | < 0.01 µg/mL | 0.61 µg/mL (≈ 0.995 µM) | < 0.01 µg/mL | 0.12 µg/mL (≈ 0.196 µM) |  |  |  | 
4 | CCCCCCCCCCCC[C@@H](O)[C@H]1CC[C@H]([C@H](O)CCCCCC(O)CCCCCCC2=C[C@H](C)OC2=O)O1 (some centres not stated) | 2.7 µg/mL (≈ 4.65 µM) | 2.9 µg/mL (≈ 4.99 µM) | 8.9 µg/mL (≈ 15.3 µM) | 3.9 µg/mL (≈ 6.71 µM) | 2.2 µg/mL (≈ 3.79 µM) | 1.7 µg/mL (≈ 2.93 µM) | 2.2 µg/mL (≈ 3.79 µM) |  |  |  | 
5 | CCCCCCCCCC[C@@H](O)[C@H]1CC[C@H]([C@H](O)CC[C@H](O)[C@@H]2CC[C@@H](CCCCC[C@@H]3CC(CC(C)=O)C(=O)O3)O2)O1 (some centres not stated) | 0.0011 µg/mL (≈ 0.0018 µM) | > 1 µg/mL | 3.3 µg/mL (≈ 5.4 µM) | 0.21 µg/mL (≈ 0.344 µM) | > 1 µg/mL | > 1 µg/mL | 0.21 µg/mL (≈ 0.344 µM) |  |  |  | 
6 | CCCCCCCCCC/C=C\CC[C@@H](O)[C@H]1CC[C@H]([C@H](O)CCCCCC(=O)CCCC[C@@H]2CC(CC(C)=O)C(=O)O2)O1 (some centres not stated) | 0.032 µg/mL (≈ 0.0515 µM) | 0.22 µg/mL (≈ 0.354 µM) | 0.44 µg/mL (≈ 0.709 µM) | > 1 µg/mL | > 1 µg/mL | > 1 µg/mL | > 1 µg/mL |  |  |  | 
7 | CCCCCCCCCCCC[C@@H](O)[C@H]1CC[C@H]([C@H](O)CCCCCC[C@H](O)CCCCCCCC2=C[C@H](C)OC2=O)O1 | 0.17 µg/mL (≈ 0.279 µM) |  | 0.13 µg/mL (≈ 0.213 µM) |  |  | 0.14 µg/mL (≈ 0.23 µM) | 0.15 µg/mL (≈ 0.246 µM) | 1 ×10⁻⁵ ug/ml | 6.5 ×10⁻⁷ ug/ml | 5.8 ×10⁻⁷ ug/ml | 
8 | CCCCCCCCCCCC[C@H](O)[C@@H]1CC[C@H]([C@H](O)CCCCCC(O)CCCCCCC2=C[C@H](C)OC2=O)O1 (some centres not stated) | 2.1 µg/mL (≈ 3.62 µM) | 1.1 µg/mL (≈ 1.89 µM) | 6.8 µg/mL (≈ 11.7 µM) | 2 µg/mL (≈ 3.44 µM) | 1.7 µg/mL (≈ 2.93 µM) | 1.4 µg/mL (≈ 2.41 µM) | 1.8 µg/mL (≈ 3.1 µM) |  |  |  | 
9 | CCCCCCCCCC[C@@H](O)[C@H]1CC[C@@H]([C@H]2CC[C@H]([C@H](O)CCCC[C@H](O)CCCCC[C@@H](O)CC3=C[C@H](C)OC3=O)O2)O1 | 0.38 µg/mL (≈ 0.595 µM) | 0.2 µg/mL (≈ 0.313 µM) |  |  |  | 0.14 µg/mL (≈ 0.219 µM) | 0.01 µg/mL (≈ 0.0157 µM) |  | 1 ×10⁻⁸ ug/ml | 1.9 ×10⁻⁸ ug/ml | 
10 | CCCCCCCCCCCC[C@@H](O)[C@H]1CC[C@H]([C@H](O)CCCCC[C@@H](O)CCCCCC[C@@H]2CC(CC(C)=O)C(=O)O2)O1 (mixture of isomers) | 2.2 µg/mL | 0.0045 µg/mL | 2.7 µg/mL | 1.9 µg/mL | 1.7 µg/mL | 1.4 µg/mL | 1.5 µg/mL |  |  |  | 
11 | CCCCCCCCCCCC[C@@H](O)[C@H]1CC[C@H]([C@H](O)CCCCCC[C@H](O)CCCCC[C@@H]2CC(CC(C)=O)C(=O)O2)O1 (mixture of isomers) | 1 µg/mL | 0.68 µg/mL | 0.31 µg/mL | 2.6 µg/mL | 3.2 µg/mL | 0.26 µg/mL | 1.4 µg/mL |  |  |  | 
12 | CCCCCCCCCC[C@@H](O)[C@H]1CC[C@H]([C@H]2CC[C@H]([C@H](O)CCCCCC(=O)CCCC[C@@H]3CC(CC(C)=O)C(=O)O3)O2)O1 (mixture of isomers) | 1.1 µg/mL | 1.2 µg/mL | 0.67 µg/mL | 0.0057 µg/mL | 0.26 µg/mL | 0.004 µg/mL | 0.46 µg/mL |  |  |  | 
13 | CCCCCCCCCCCCCC[C@@H](O)[C@H]1CC[C@H]([C@H](O)CCCC[C@H](O)CCCCC[C@@H]2CC(CC(C)=O)C(=O)O2)O1 (mixture of isomers) | 0.057 µg/mL | 0.074 µg/mL | 0.04 µg/mL | 0.014 µg/mL |  |  | 0.12 µg/mL |  |  | 7.6 ×10⁻⁴ ug/ml | 7.4 ×10⁻⁴ ug/ml
14 | CCCCCCCCCCCC/C=C\CC[C@@H](O)[C@H]1CC[C@H]([C@H](O)CC[C@H](O)CCCCC[C@H]2CC(CC(C)=O)C(=O)O2)O1 (mixture of isomers) | 1.5 µg/mL | 0.045 µg/mL | < 0.3 µg/mL | 1.8 µg/mL | 3.7 µg/mL | 2.9 µg/mL | 2.2 µg/mL |  |  |  | 
